{
  "source": "paper PMC6934184",
  "about": "“Selective DNA-PKcs inhibition extends the therapeutic index of localized radiotherapy and chemotherapy” (The Journal of Clinical Investigation, 2019)",
  "target": "T1, IRAK1 (Homo sapiens, UniProt P51617)",
  "T1 construct": "purchased Thermo Fisher Scientific (Life Technologies) SelectScreen",
  "T1 sequence (P51617 whole entry)": "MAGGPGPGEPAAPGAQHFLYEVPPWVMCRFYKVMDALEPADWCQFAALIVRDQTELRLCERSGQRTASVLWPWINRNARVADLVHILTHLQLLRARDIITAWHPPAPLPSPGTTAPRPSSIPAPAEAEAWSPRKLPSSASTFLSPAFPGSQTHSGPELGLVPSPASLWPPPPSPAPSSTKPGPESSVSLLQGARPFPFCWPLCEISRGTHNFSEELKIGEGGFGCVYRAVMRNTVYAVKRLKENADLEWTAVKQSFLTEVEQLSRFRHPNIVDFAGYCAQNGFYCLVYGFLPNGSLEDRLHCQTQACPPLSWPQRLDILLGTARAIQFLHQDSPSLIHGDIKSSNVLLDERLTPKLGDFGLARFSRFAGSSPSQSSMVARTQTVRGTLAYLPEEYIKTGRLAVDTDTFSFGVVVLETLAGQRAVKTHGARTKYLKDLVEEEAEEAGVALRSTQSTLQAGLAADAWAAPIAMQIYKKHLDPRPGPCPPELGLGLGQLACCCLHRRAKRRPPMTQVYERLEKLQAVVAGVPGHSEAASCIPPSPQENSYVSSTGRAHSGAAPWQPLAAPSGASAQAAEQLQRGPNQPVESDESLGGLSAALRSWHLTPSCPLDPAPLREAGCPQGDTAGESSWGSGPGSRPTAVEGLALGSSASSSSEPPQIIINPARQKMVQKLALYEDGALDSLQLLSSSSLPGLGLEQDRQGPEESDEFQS",
  "test": "SelectScreen Adapta",
  "assay_type": "biochemical",
  "protocol": "The in vitro kinase selectivity of NU5455 was determined using the SelectScreen Broad Assay Panel (Thermo Fisher Scientific) involving activity and binding assays (Supplemental Table 1). […] Class IA PI3Ks were measured using the p85α subunit.\nKinase [ATP] % Assay Kinase [ATP] % Assay Kinase [ATP] % Assay Kinase [ATP] % Assay\nDNA-PK Km app 98.3 Z LATS2 n/a 4.7 L KIT D820E n/a 1.3 L GSK3B (GSK3 beta) Km app -2.5 Z\nPIK3C3 (hVPS34) Km app 85.9 A PRKCZ (PKC zeta) Km app 4.7 Z GRK1 n/a 1.3 L BMPR2 n/a -2.5 L\nPIK3C2B (PI3K-C2 beta) 10 28.9 A FGFR1 Km app 4.7 Z BRSK2 n/a 1.2 L CDC42 BPB (MRCKB) Km app -2.5 Z\nSNF1LK2 Km app 26.6 Z MINK1 Km app 4.6 Z NUAK1 (ARK5) Km app 1.2 A AMPK (A2/B2/G2) n/a -2.6 L\nHCK Km app 18.0 Z CSF1R (FMS) Km app 4.3 Z CDK9/cyclin K n/a 1.0 L PRKG1 Km app -2.7 Z\nNEK2 Km app 17.8 Z CSNK1G3 (CK1 gamma 3) Km app 4.2 Z NUAK2 n/a 1.0 L KIT T670E n/a -2.8 L\nALK Km app 17.3 Z STK32C (YANK3) n/a 4.2 L CDK2/cyclin O n/a 0.9 L ERBB4 (HER4) Km app -2.8 Z\nFGFR3 K650M n/a 16.5 L STK22D (TSSK1) Km app 4.2 Z CAMKK2 (CaMKK beta) n/a 0.9 L PLK4 n/a -2.8 L\nSIK3 n/a 16.1 L TAOK3 (JIK) n/a 4.2 L FGFR3 Km app 0.9 Z GRK7 Km app -3.0 Z\nLYN A Km app 15.2 Z RPS6KA4 (MSK2) Km app 4.2 Z ULK2 n/a 0.9 L MAPKAPK2 Km app -3.1 Z\nBMPR1B (ALK6) n/a 14.5 L PTK2B (FAK2) Km app 4.2 Z KIT D816V n/a 0.9 L FGFR4 Km app -3.1 Z\nINSRR (IRR) Km app 14.1 Z CLK2 Km app 4.1 Z CAMK1 (CaMK1) 10 0.8 A CASK n/a -3.1 L\nPLK2 Km app 14.1 Z STK24 (MST3) Km app 4.1 Z PTK6 (Brk) Km app 0.7 Z GRK5 Km app -3.2 Z\nPRKACA (PKA) Km app 14.0 Z CAMK1D (CaMKI delta) Km app 4.1 Z CAMK2B (CaMKII beta) Km app 0.7 Z EGFR (ErbB1) T790M Km app -3.3 Z\nEIF2AK2 (PKR) n/a 13.3 L INSR Km app 4.1 Z ACVR1 (ALK2) n/a 0.7 L PAK4 Km app -3.3 Z\nPRKX Km app 12.5 Z IRAK1 Km app 4.0 A ABL1 H396P n/a 0.6 L DAPK3 (ZIPK) Km app -3.4 Z\nFGR Km app 12.1 Z SRC N1 Km app 3.9 Z MERTK (cMER) A708S n/a 0.6 L RET M918T n/a -3.5 L\nCLK1 Km app 11.7 Z SRPK2 Km app 3.9 Z MAPKAPK5 (PRAK) Km app 0.6 Z PRKCQ (PKC theta) Km app -3.7 Z\nMARK3 Km app 11.4 Z RPS6KA6 (RSK4) Km app 3.8 Z AKT1 (PKB alpha) Km app 0.5 Z CAMKK1 (CAMKKA) n/a -3.8 L\nPDGFRB (PDGFR beta) Km app 11.0 Z GRK6 Km app 3.7 Z NTRK3 (TRKC) Km app 0.4 Z FLT3 D835Y Km app -3.9 Z\nPRKCN (PKD3) Km app 10.7 Z PKN1 (PRK1) Km app 3.6 Z ZAP70 Km app 0.3 Z ROCK2 Km app -4.1 Z\nSTK16 (PKL12) n/a 10.5 L MAP3K8 (COT) 100 3.5 Z CSNK1A1 (CK1 alpha 1) Km app 0.3 Z CHUK (IKK alpha) Km app -4.2 A\nFES (FPS) Km app 10.4 Z FLT4 (VEGFR3) Km app 3.5 Z MYLK (MLCK) n/a 0.2 L AXL Km app -4.2 Z\nABL1 Km app 10.4 Z GRK4 Km app 3.5 Z MKNK2 (MNK2) n/a 0.2 L PIM2 Km app -4.3 Z\nMUSK Km app 10.3 Z FRK (PTK5) Km app 3.4 Z AMPK (A1/B1/G3) n/a 0.2 L PAK1 Km app -4.4 Z\nMAPK1 (ERK2) Km app 10.1 Z FYN A n/a 3.3 L MAP3K2 (MEKK2) n/a 0.1 L BMPR1A (ALK3) n/a -4.4 L\nBRAF 100 9.9 Z CDK1/cyclin A2 n/a 3.3 L CDK8/cyclin C n/a 0.1 L STK4 (MST1) Km app -4.4 Z\nIGF1R Km app 9.7 Z KIT V559D T670I n/a 3.1 L MARK2 Km app 0.1 Z PRKCH (PKC eta) Km app -4.6 Z\nMAPK14 (p38 alpha) Km app 9.7 Z SPHK2 10 3.1 A ICK n/a 0.0 L SGKL (SGK3) Km app -4.6 Z\nLCK Km app 9.6 Z FGFR3 G697C n/a 3.1 L FGFR2 Km app 0.0 Z PI4KB (PI4K beta) Km app -4.7 A\nMAPK11 (p38 beta) Km app 9.5 Z RIPK2 n/a 3.1 L AKT2 (PKB beta) Km app 0.0 Z PRKCE (PKC epsilon) Km app -4.9 Z\nSRC Km app 9.5 Z PAK6 Km app 3.0 Z EPHB2 Km app -0.1 Z PHKG1 Km app -5.0 Z\nCHEK1 (CHK1) Km app 9.3 Z LYN B Km app 3.0 Z TGFBR2 n/a -0.1 L PDGFRA D842V Km app -5.0 Z\nCAMK2D (CaMKII delta) Km app 9.3 Z DAPK2 n/a 2.9 L TEK (Tie2) Km app -0.1 Z PRKG2 (PKG2) Km app -5.1 Z\nPLK1 Km app 9.2 Z EPHA4 Km app 2.9 Z AURKA (Aurora A) Km app -0.1 Z TYRO3 (RSE) Km app -5.1 Z\nRET Y791F Km app 9.2 Z PIK3CG (p110 gamma) Km app 2.9 A KIT D816H n/a -0.2 L TAOK2 (TAO1) Km app -5.1 Z\nFLT3 Km app 9.1 Z HIPK1 (Myak) Km app 2.8 Z KIT N822K n/a -0.2 L EPHB4 Km app -5.3 Z\nMAPK10 (JNK3) 100 9.0 Z ADRBK2 (GRK3) Km app 2.8 Z PRKACG (PRKAC gamma) n/a -0.2 L AURKC (Aurora C) Km app -5.4 Z\nCSNK2A2 (CK2 alpha 2) Km app 8.7 Z STK17B (DRAK2) n/a 2.7 L TEK (TIE2) Y1108F n/a -0.3 L JAK1 Km app -5.7 Z […]",
  "data": [
    {"smiles": "CN(C(=O)CN1CCOCC1)c1ccc2sc3c(-c4cccc5c(=O)cc(N6CC7CCC(C6)O7)oc45)cccc3c2c1", "note": "[NU5455]", "values": [
      {"measurement": "inhibition at 1 µM", "result": 4, "unit": "%"}
    ]}
  ]
}
